SMILES strings stand for the structures. A value given as a limit tells only on which side of the number the result lay.

The target of assay [1] is T1, squalene synthetase (Homo sapiens, UniProt P37268).
T1 construct: endogenous in cells; host or cells: HepG2 (human hepatic carcinoma) cells, microsome fraction
T1 sequence (P37268 1-417): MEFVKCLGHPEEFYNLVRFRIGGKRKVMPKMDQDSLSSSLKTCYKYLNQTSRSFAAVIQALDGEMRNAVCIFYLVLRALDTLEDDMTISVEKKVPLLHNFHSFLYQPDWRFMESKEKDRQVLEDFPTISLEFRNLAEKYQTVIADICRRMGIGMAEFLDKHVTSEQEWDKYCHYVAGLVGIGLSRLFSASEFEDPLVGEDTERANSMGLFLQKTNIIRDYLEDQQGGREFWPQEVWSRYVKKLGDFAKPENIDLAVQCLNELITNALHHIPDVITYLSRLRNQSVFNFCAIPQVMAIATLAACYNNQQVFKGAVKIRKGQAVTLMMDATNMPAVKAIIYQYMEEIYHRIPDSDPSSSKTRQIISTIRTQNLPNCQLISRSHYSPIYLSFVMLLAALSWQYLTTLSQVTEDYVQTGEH
Put plainly: Squalene synthetase inhibitory activity, human-derived enzyme (HepG2 microsome fraction). It counts as biochemical. Particulars: 5 uM [1-3H] farnesyl pyrophosphate, 37° C., 45 minutes. On the procedure:
(§1) Assay Method of Squalene Synthetase Inhibitory Activity
(§2) The squalene synthetase inhibitory activity was assayed as follows with the enzyme solutions described in the subsequent Experimental Examples 1 and 2.
(§3) More specifically, an enzyme solution (protein content 0.8 ug) prepared in Experimental Example 1 or 2 was added to a solution (total volume 50 μl)) containing 5 uM [1-^3 H] farnesyl pyrophosphate (specific activity 25 uCi/mole), 1 mM NADPH, 5 mM MgCl2, 6 mM glutathione, a 100 mM buffer solution of potassium phosphate (pH 7.4) and a test drug (used as an aqueous solution or a DMSO solution), then the reaction was allowed to proceed at 37° C. for 45 minutes. To the reaction mixture was added 150 μl of a mixture of chloroform and methanol (1:2) to suspend the reaction, followed by adding 50 μl of chloroform and 50 μl of a 3N aqueous solution of sodium hydroxide. 50 μl of the chloroform layer (lower layer) containing the reaction mixture having squalene as the principal component and 3 ml of toluene-based liquid scintillator were mixed, and its radioactivity was determined by means of a liquid scintillation counter.
(§4) The squalene synthetase inhibitory activity was expressed in terms of the concentration inhibiting by 50% the radioactivity taken into the chloroform layer (IC50, molar concentration (M)).
Human hepatic carcinoma cells HepG2 (about 1×10^9 cells) obtained by incubation in a Dulbecco-modified Eagle's medium (37° C. in the presence of 5% CO2) were suspended in 10 ml of an ice-cooled buffer solution [100 mM potassium phosphate buffer (pH 7.4), 30 mM nicotinamide and 2.5 mM MgCl2 ]. The cells were crashed by means of ultrasonication (for 30 seconds, twice). From the sonicate thus obtained, the microsome fraction was obtained by the same procedure as in Experiment Example 1, which was suspended in an ice-cooled 100 mM potassium phosphate buffer (pH 7.4) (about 4 mg/ml protein concentration). This suspension was used as the enzyme solution. The results are shown in [Table 4].

The target in assay [2] is T2, squalene synthetase (Rattus norvegicus, UniProt Q02769).
T2 construct: from tissue; host or cells: rat liver microsome fraction (SD male rat, 6 weeks old)
T2 sequence (Q02769 1-416): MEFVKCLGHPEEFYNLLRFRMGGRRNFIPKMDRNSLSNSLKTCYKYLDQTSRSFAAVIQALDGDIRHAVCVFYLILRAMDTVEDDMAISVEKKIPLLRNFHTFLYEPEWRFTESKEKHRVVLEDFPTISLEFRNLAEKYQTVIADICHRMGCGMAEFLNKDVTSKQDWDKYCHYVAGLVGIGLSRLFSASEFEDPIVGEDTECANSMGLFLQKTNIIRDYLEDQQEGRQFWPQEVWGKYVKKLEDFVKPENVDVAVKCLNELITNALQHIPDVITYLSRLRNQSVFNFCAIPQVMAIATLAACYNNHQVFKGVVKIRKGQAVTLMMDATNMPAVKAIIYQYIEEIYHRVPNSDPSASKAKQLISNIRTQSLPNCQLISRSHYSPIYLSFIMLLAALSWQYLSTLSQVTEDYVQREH
As to the kind of experiment: Squalene synthetase inhibitory activity, rat-derived enzyme (liver microsome fraction). It counts as biochemical. Particulars: SD rat liver microsome fraction; 5 uM [1-3H] farnesyl pyrophosphate, 37° C., 45 minutes. The procedure:
as §1, §2, §3, §4
An SD male rat (6 week old) was killed by bleeding, and its liver was excised. About 10 g of the liver was washed with a saline solution cooled with ice, which was then homogenized in 15 ml of an ice-cooled buffer solution [100 mM potassium phosphate (pH 7.4), 15 mM nicotinamide, 2 mM MgCl2 ], followed by centrifugation for 20 minutes (4° C.) with 10000×g. The supernatant layer was separated and subjected to further centrifugation for 90 minutes (4° C.) at 105000×g. The sediment was then suspended in an ice-cooled 100 mM phosphate buffer solution (pH 7.4), which was again subjected to centrifugation for 90 minutes (4° C.) at 105000×g. The sediment thus obtained (microsome fraction) was suspended in an ice-cooled 100 mM potassium phosphate buffer (pH 7.4) (about 40 mg/ml protein concentration, determined with BCA protein assay kit of Pias Co., Ltd.). This suspension was used as the enzyme solution.

In general, IC50 refers to the concentration that inhibits the measured activity by half. A low value points to higher potency. On to `CC(C)CN1C(=O)[C@@H](CC(=O)O)N[C@H](c2ccccc2Cl)c2cc(Cl)ccc21` [Example 14, (3R,5S)-1-Isobutyl-7-chloro-5-(2-chlorophenyl)-2,3,4,5-tetrahydro-2-oxo-1H-1,4-benzodiazepine-3-acetic acid], for which the IC50 against squalene synthetase [1] came out at 160 nM; at squalene synthetase [2], 430 nM.
Taken in the same sequence, the figures for `CCCN1C(=O)[C@@H](CC(=O)O)S[C@H](c2ccccc2OC)c2cc(Cl)ccc21` (relative stereo) [Example 10-6] were 31 nM and 39 nM.
Turning to `CC(C)(C)CN1C(=O)[C@@H](CC(=O)O)[S+]([O-])[C@H](c2ccccc2Cl)c2cc(Cl)ccc21` (relative stereo) [Example 19, 3,5-trans-7-Chloro-5-(2-chlorophenyl)-1-neopentyl-2-oxo-1,2,3,5-tetrahydro-4,1-benzothiazepine-3-acetic acid S-oxide], the IC50 against squalene synthetase [2] stood at 700 nM.
For the molecule `CC(C)CN1C(=O)[C@@H](CC(=O)O)S[C@H](c2ccccc2Cl)c2cc(Cl)ccc21` (relative stereo) [Example 10-5, 3,5-trans-7-Chloro-5-(2-chlorophenyl)-1-isobutyl-2-oxo-1,2,3,5-tetrahydro-4,1-benzothiazepine-3-acetic acid], the IC50 against squalene synthetase [1] was 25 nM; against squalene synthetase [2], 51 nM.
Taken in the same sequence, the figures for `CCCN1C(=O)[C@@H](CC(=O)O)S[C@H](c2ccccc2Cl)c2cc(Cl)ccc21` (relative stereo) [Example 10-2] were 42 nM and 62 nM.
For `CC(C)CN1C(=O)C(CC(=O)O)CC(c2ccccc2Cl)c2cc(Cl)ccc21` (stereo not drawn) [Example 26, 7-Chloro-5-(2-chlorophenyl)-1-isobutyl-2-oxo-2,3,4,5-tetrahydro-1H-[1]-benzazepine-3-acetic acid], in that order: 120 nM and 390 nM.
Turning to `CC(C)(C)CN1C(=O)N(CC(=O)O)CC(c2ccccc2Cl)c2cc(Cl)ccc21` (stereo not drawn) [Example 53, 7-Chloro-5-(2-chlorophenyl)-1-neopentyl-2-oxo-1,2,4,5-tetrahydro-3H-1,3-benzodiazepine-3-acetic acid], the values for the IC50 against squalene synthetase [1] and at squalene synthetase [2] were 130 nM and 290 nM, respectively.
`COc1cccc([C@@H]2S[C@@H](CC(=O)O)C(=O)N(CC(C)(C)C)c3ccc(Cl)cc32)c1OC` [Example 44, (3S,5R)-7-Chloro-5-(2,3-dimethoxyphenyl)-1-neopentyl-2-oxo-1,2,3,5-tetrahydro-4,1-benzothiazepine-3-acetic acid]: inhibition on squalene synthetase [2] was half-maximal at 960 nM (IC50).
Consider `COc1ccccc1[C@H]1O[C@H](CC(=O)O)C(=O)N(CC(C)(C)C)c2sc(Cl)cc21` (relative stereo) [Example 33, 3,5-trans-7-Chloro-5-(2-methoxyphenyl)-1-neopentyl-2-oxo-1,2,3,5-tetrahydro-4,1-thieno[2,3-e]oxazepine-3-acetic acid], for which the IC50 on squalene synthetase [1] was 73 nM; against squalene synthetase [2] it was 88 nM.
Taken in the same sequence, the figures for `COc1ccc([C@H]2S[C@H](CC(=O)O)C(=O)N(CC(C)(C)C)c3ccc(Cl)cc32)c(OC)c1` [Example 51, (3R,5S)-7-Chloro-5-(2,4-dimethoxyphenyl)-1-neopentyl-2-oxo-1,2,3,5-tetrahydro-4,1-benzothiazepine-3-acetic acid] were 18 nM and 21 nM.
As for `CC(C)(C)CN1C(=O)[C@@H](CC(=O)O)O[C@H](c2ccccc2Cl)c2cc(Cl)sc21` (relative stereo) [Example 31, 3,5-trans-7-Chloro-5-(2-chlorophenyl)-1-neopentyl-2-oxo-1,2,3,5-tetrahydro-4,1-thieno[2,3-e]benzoxazepine-3-acetic acid], the IC50 at squalene synthetase [2] stood at 170 nM.
With `COc1ccccc1[C@H]1O[C@@H](CC(=O)O)C(=O)N(CC(C)(C)C)c2sc(Cl)cc21` (relative stereo) [Example 34, 3,5-cis-7-Chloro-5-(2-methoxyphenyl)-1-neopentyl-2-oxo-1,2,3,5-tetrahydro-4,1-thieno[2,3-e]oxazepine-3-acetic acid], the IC50 at squalene synthetase [2] is > 1000 nM.
As for `CC(C)(C)CN1C(=S)[C@@H](CC(=O)O)O[C@H](c2ccccc2Cl)c2cc(Cl)ccc21` (relative stereo) [Example 28, 3,5-trans-7-Chloro-5-(2-chlorophenyl)-1-neopentyl-1,2,3,4-tetrahydro-2-thioxo-4,1-benzoxazepine-3-acetic acid], on squalene synthetase [2], the IC50 turned out to be 460 nM.
As to `COc1ccccc1[C@H]1S[C@H](CC(=O)O)C(=O)N(CC(C)C)c2ccc(Cl)cc21` (relative stereo) [Example 10-7, 3,5-trans-7-Chloro-5-(2-methoxyphenyl)-1-isobutyl-2-oxo-1,2,3,5-tetrahydro-4,1-benzothiazepine-3-acetic acid], the values for the IC50 against squalene synthetase [1] and on squalene synthetase [2] were 13 nM and 26 nM, respectively.
On to `CCN1C(=O)[C@@H](CC(=O)O)S[C@H](c2ccccc2Cl)c2cc(Cl)ccc21` (relative stereo) [Example 10-4], for which half-maximal inhibition against squalene synthetase [2] (IC50) required 100 nM.
On the same count and under the same terms, then `COc1ccc([C@@H]2S[C@@H](CC(=O)O)C(=O)N(CC(C)(C)C)c3ccc(Cl)cc32)c(OC)c1` [Example 50, (3S,5R)-7-Chloro-5-(2,4-dimethoxyphenyl)-1-neopentyl-2-oxo-1,2,3,5-tetrahydro-4,1-benzothiazepine-3-acetic acid], with > 1000 nM.
On the same count and under the same terms, then `CN1C(=O)[C@@H](CC(=O)O)S[C@H](c2ccccc2Cl)c2cc(Cl)ccc21` (relative stereo) [Example 10-3], with 920 nM.
`COc1ccccc1[C@H]1O[C@H](CC(=O)O)C(=O)N(CC(C)C)c2sc(Cl)cc21` (relative stereo) [Example 36, 3,5-trans-7-Chloro-1-isobutyl-5-(2-methoxyphenyl)-2-oxo-1,2,3,5-tetrahydro-4,1-thieno[2,3-e]oxazepine-3-acetic acid]: on squalene synthetase [2], the IC50 was found to be 490 nM.
Still for that read-out and setting: then `CC(C)(C)CN1C(=O)[C@@H](CC(=O)O)S(=O)(=O)[C@H](c2ccccc2Cl)c2cc(Cl)ccc21` (relative stereo) [Example 21, 3,5-trans-7-Chloro-5-(2-chlorophenyl)-1-neopentyl-2-oxo-1,2,3,5-tetrahydro-4,1-benzothiazepine-3-acetic acid S-dioxide], with 3300 nM.
On the same count and under the same terms, the result for `CC(C)CN1C(=O)[C@@H](CC(=O)O)N=C(c2ccccc2Cl)c2cc(Cl)ccc21` [Example 13, (3R)-1-Isobutyl-7-chloro-5-(2-chlorophenyl)-2,3-dihydro-2-oxo-1H-1,4-benzodiazepine-3-acetic acid] reads 3900 nM.
Consider `COC(=O)C[C@H]1S[C@H](c2ccccc2OC)c2cc(Cl)ccc2N(CC(C)C)C1=O` (relative stereo) [Example 8-1, 3,5-trans-7-Chloro-5-(2-methoxyphenyl)-1-isobutyl-2-oxo-1,2,3,5-tetrahydro-4,1-benzothiazepine-3-acetic acid methyl ester], for which, at squalene synthetase [1], the IC50 was 2000 nM.

The values are drawn from US5698691A, “Condensed cyclic compounds and their use” (Takeda Chemical Industries, Ltd., priority 1993, dated 1997).
